Literature values, collected in article PMC7511286 (European Journal of Drug Metabolism and Pharmacokinetics, 2020).

How the values were obtained:
[1] = hepatocytes across different species; ref data on file; cited from earlier work
[2] = system: stimulated immune cells; details: cited from earlier work
[3] = system: CYP2C9; details: human liver microsomes, recombinant enzymes; ref data on file; cited from earlier work
[4] = system: human mitochondrial enzyme dihydroorotate dehydrogenase (DHODH); details: cited from earlier work
[5] = free acid, multiple-dose phase 1 study; cited from earlier work
[6] = system: CYP2C8; details: human liver microsomes, recombinant enzymes; ref data on file; cited from earlier work

COc1cccc(-c2ccc(NC(=O)C3=C(C(=O)O)CCC3)c(F)c2)c1 [vidofludimus]
number of metabolites identified [1]: eight
inhibition of IL-17 and IFN-γ release [2]: very potent inhibitor
contribution of CYP isoform to metabolism [3]: smaller contributions
inhibition of DHODH [4]: potent and selective inhibitor
daily dose at which cases of hematuria occurred [5]: 70 mg
contribution of CYP isoform to metabolism [6]: predominant hepatic CYP isoform
